Laboratory results reported in patent publication US9409908B2 (priority 2012, dated 2016).
Where a name gives a salt, the structure may show the parent alone.

Assays:
[1] = biological target: purified human Factor XIa (Homo sapiens (Human), UniProt P03951); assay: biochemical; type: biochemical; conditions: read-out: Factor XIa Ki
[2] = biological target: purified human plasma kallikrein (Homo sapiens (Human), UniProt P03952); assay: biochemical; type: biochemical; conditions: read-out: Plasma Kallikrein Ki
purified human plasma kallikrein, sequence (P03952 whole entry, looked up): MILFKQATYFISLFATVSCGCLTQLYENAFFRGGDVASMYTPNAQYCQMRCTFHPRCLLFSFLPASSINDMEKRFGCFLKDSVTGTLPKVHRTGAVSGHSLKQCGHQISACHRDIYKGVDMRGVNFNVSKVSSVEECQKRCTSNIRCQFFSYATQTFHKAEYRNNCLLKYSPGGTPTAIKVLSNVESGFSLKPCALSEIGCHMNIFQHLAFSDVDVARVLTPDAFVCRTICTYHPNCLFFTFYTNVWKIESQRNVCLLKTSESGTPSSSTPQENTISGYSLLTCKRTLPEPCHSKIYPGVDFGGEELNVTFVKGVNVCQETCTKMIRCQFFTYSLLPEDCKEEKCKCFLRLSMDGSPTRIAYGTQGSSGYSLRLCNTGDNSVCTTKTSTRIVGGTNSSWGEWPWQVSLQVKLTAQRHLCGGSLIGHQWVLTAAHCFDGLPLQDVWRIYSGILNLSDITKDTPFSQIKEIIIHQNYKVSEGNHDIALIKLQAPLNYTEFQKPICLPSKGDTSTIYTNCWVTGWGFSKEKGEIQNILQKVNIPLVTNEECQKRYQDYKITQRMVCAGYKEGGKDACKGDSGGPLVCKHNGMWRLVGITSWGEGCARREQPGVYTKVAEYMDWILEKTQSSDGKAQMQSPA
purified human plasma kallikrein, sequence (P03952 whole entry partner, looked up): as the sequence (P03952 whole entry, looked up) above

purified human Factor XIa, sequence (P03951 whole entry, looked up): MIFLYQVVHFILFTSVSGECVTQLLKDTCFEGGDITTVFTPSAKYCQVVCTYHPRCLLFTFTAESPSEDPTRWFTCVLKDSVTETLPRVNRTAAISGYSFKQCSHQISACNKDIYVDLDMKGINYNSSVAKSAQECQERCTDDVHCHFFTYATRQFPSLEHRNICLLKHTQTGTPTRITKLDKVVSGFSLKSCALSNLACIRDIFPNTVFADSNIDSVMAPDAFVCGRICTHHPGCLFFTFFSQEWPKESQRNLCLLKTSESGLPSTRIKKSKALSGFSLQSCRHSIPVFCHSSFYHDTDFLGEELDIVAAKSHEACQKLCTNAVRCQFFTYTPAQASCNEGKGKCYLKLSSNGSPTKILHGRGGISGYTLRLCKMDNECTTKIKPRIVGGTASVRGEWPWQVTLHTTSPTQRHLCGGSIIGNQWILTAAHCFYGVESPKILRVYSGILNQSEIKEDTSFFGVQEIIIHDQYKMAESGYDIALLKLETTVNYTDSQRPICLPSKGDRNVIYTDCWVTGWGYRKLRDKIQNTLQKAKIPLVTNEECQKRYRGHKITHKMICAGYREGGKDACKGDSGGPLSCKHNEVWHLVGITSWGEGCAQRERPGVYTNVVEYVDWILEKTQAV
purified human Factor XIa, sequence (P03951 whole entry partner, looked up): as the sequence (P03951 whole entry, looked up) above

Row | Structure (SMILES) | Ki [1] [nM] | Ki [2] [nM]
1 | COC(=O)Nc1ccc2c(c1)NC(=O)[C@H](C)CCC[C@H](N1CCC(c3cccc(C)c3C)=CC1=O)c1cc-2ccn1 [Example 114, Methyl-N-[(10R,14S)-14-[4-(2,3-dimethylphenyl)-6-oxo-1,2,3,6-tetrahydropyridin-1-yl]-10-methyl-9-oxo-8,16-diazatricyclo[13.3.1.0^2,7]nonadeca-1(18),2,4,6,15(19),16-hexaen-5-yl]carbamate] | 108 | 143
2 | COC(=O)Nc1ccc2c(c1)NC(=O)[C@H](C)CCC[C@H](N1CCC(c3ccccc3OC)=CC1=O)c1cc-2ccn1 [Example 116, Methyl N-[(10R,14S)-14-[4-(2-methoxyphenyl)-6-oxo-1,2,3,6-tetrahydropyridin-1-yl]-10-methyl-9-oxo-8,16-diazatricyclo[13.3.1.0^2,7]nonadeca-1(18),2,4,6,15(19),16-hexaen-5-yl]carbamate] | 267 | 739
3 | COC(=O)Nc1ccc2c(c1)NC(=O)[C@H](C)CCC[C@H](N1CCC(c3ccc(OC)cc3)=CC1=O)c1cc-2ccn1 [Example 117, Methyl N-[(10R,14S)-14-[4-(4-methoxyphenyl)-6-oxo-1,2,3,6-tetrahydropyridin-1-yl]-10-methyl-9-oxo-8,16-diazatricyclo[13.3.1.0^2,7]nonadeca-1(18),2,4,6,15(19),16-hexaen-5-yl]carbamate] | > 398 | > 13000
4 | COC(=O)Nc1ccc2c(c1)NC(=O)[C@H](C)CCC[C@H](N1CCC(c3cccc(Cl)c3OC)=CC1=O)c1cc-2ccn1 [Example 118, Methyl N-[(10R,14S)-14-[4-(3-chloro-2-methoxyphenyl)-6-oxo-1,2,3,6-tetrahydropyridin-1-yl]-10-methyl-9-oxo-8,16-diazatricyclo[13.3.1.0^2,7]nonadeca-1(18),2,4,6,15(19),16-hexaen-5-yl]carbamate] | > 404 | 2030
5 | COC(=O)Nc1ccc2c(c1)NC(=O)C(C)(O)CCC[C@H](N1CCC(c3c(F)ccc(Cl)c3F)=CC1=O)c1cc-2ccn1 (stereo partly drawn) [Example 123, Methyl N-[(14S)-14-[4-(3-chloro-2,6-difluorophenyl)-6-oxo-1,2,3,6-tetrahydropyridin-1-yl]-10-hydroxy-10-methyl-9-oxo-8,16-diazatricyclo[13.3.1.0^2,7]nonadeca-1(19),2,4,6,15,17-hexaen-5-yl]carbamate, TFA salt] | 20.1 | 26.1
6 | C[C@@H]1CCC[C@H](N2CCC(c3c(F)ccc(Cl)c3F)=CC2=O)c2cc(ccn2)-c2ccc(NC3O[C@H](CO)[C@@H](O)[C@H](O)[C@@H]3O)cc2NC1=O (stereo partly drawn) [Example 125, (10R,14S)-14-[4-(3-chloro-2,6-difluorophenyl)-6-oxo-1,2,3,6-tetrahydropyridin-1-yl]-10-methyl-5-{[(3S,4S,5S,6R)-3,4,5-trihydroxy-6-(hydroxymethyl)oxan-2-yl]amino}-8,16-diazatricyclo[13.3.1.0^2,7]nonadeca-1(19),2,4,6,15,17-hexaen-9-one] | 15.2 | 11.6
7 | C[C@@H]1CCC[C@H](N2CCC(c3c(F)ccc(Cl)c3F)=CC2=O)c2cc(ccn2)-c2ccc(NC3O[C@H](CO)[C@@H](O)[C@H](O)[C@H]3O)cc2NC1=O (stereo partly drawn) [Example 126, (10R,14S)-14-[4-(3-chloro-2,6-difluorophenyl)-6-oxo-1,2,3,6-tetrahydropyridin-1-yl]-10-methyl-5-{[(3R,4S,5S,6R)-3,4,5-trihydroxy-6-(hydroxymethyl)oxan-2-yl]amino}-8,16-diazatricyclo[13.3.1.0^2,7]nonadeca-1(19),2,4,6,15,17-hexaen-9-one] | 16.1 | 37.6
8 | C[C@@H]1CCC[C@H](N2CCC(c3c(F)ccc(Cl)c3F)=CC2=O)c2cc(ccn2)-c2ccc(NC3O[C@H](C(=O)O)[C@@H](O)[C@H](O)[C@H]3O)cc2NC1=O (stereo partly drawn) [Example 128, (2S,3S,4S,5R)-6-{[(10R,14S)-14-[4-(3-chloro-2,6-difluorophenyl)-6-oxo-1,2,3,6-tetrahydropyridin-1-yl]-10-methyl-9-oxo-8,16-diazatricyclo[13.3.1.0^2,7]nonadeca-1(19),2,4,6,15,17-hexaen-5-yl]amino}-3,4,5-trihydroxyoxane-2-carboxylic acid] | 10.3 | 25.5
9 | CO[C@H]1[C@H](O)[C@@H](CO)OC(Nc2ccc3c(c2)NC(=O)[C@H](C)CCC[C@H](N2CCC(c4c(F)ccc(Cl)c4F)=CC2=O)c2cc-3ccn2)[C@@H]1O (stereo partly drawn) [Example 129, (10R,14S)-14-[4-(3-chloro-2,6-difluorophenyl)-6-oxo-1,2,3,6-tetrahydropyridin-1-yl]-5-{[(3R,4S,5R,6R)-3,5-dihydroxy-6-(hydroxymethyl)-4-methoxyoxan-2-yl]amino}-10-methyl-8,16-diazatricyclo[13.3.1.0^2,7]nonadeca-1(19),2,4,6,15,17-hexaen-9-one] | 8.29 | 21.7
10 | CC(=O)N[C@@H]1C(Nc2ccc3c(c2)NC(=O)[C@H](C)CCC[C@H](N2CCC(c4c(F)ccc(Cl)c4F)=CC2=O)c2cc-3ccn2)O[C@H](CO)[C@@H](O)[C@@H]1O (stereo partly drawn) [Example 130, N-[(3S,4R,5S,6R)-2-{[(10R,14S)-14-[4-(3-chloro-2,6-difluorophenyl)-6-oxo-1,2,3,6-tetrahydropyridin-1-yl]-10-methyl-9-oxo-8,16-diazatricyclo[13.3.1.0^2,7]nonadeca-1(19),2,4,6,15,17-hexaen-5-yl]amino}-4,5-dihydroxy-6-(hydroxymethyl)oxan-3-yl]acetamide] | 8.51 | 26.5
11 | C[C@@H]1CCC[C@H](N2CCC(c3c(F)ccc(Cl)c3F)=CC2=O)c2cc(ccn2)-c2ccc(NC3O[C@@H](CO)[C@H](O)[C@@H](O)[C@@H]3O)cc2NC1=O (some centres unmarked) [Example 131] | 7.22 | 20.8
12 | C[C@@H]1CCC[C@H](N2CCC(c3c(F)ccc(Cl)c3F)=CC2=O)c2cc(ccn2)-c2ccc(NC3O[C@H](CO)[C@@H](O[C@H]4O[C@H](CO)[C@@H](O[C@H]5O[C@H](CO)[C@@H](O)[C@H](O)[C@H]5O)[C@H](O)[C@H]4O)[C@H](O)[C@H]3O)cc2NC1=O (stereo partly drawn) [Example 133, (10R,14S)-14-[4-(3-chloro-2,6-difluorophenyl)-6-oxo-1,2,3,6-tetrahydropyridin-1-yl]-5-{[(3R,4R,5S,6R)-5-{[(2R,3R,4R,5S,6R)-3,4-dihydroxy-6-(hydroxymethyl)-5-{[(2R,3R,4S,5S,6R)-3,4,5-trihydroxy-6-(hydroxymethyl)oxan-2-yl]oxy}oxan-2-yl]oxy}-3,4-dihydroxy-6-(hydroxymethyl)oxan-2-yl]amino}-10-methyl-8,16-diazatricyclo[13.3.1.0^2,7]nonadeca-1(19),2,4,6,15,17-hexaen-9-one] | 4.77 | 12.6
13 | COC(=O)Nc1ccc2c(c1)NC(=O)[C@H](C)CCC[C@H](N1CCC(c3c(F)ccc(Cl)c3F)=CC1=O)c1nc-2c(Cl)[nH]1 [Example 135, Methyl N-[(10R,14S)-17-chloro-14-[4-(3-chloro-2,6-difluorophenyl)-6-oxo-1,2,3,6-tetrahydropyridin-1-yl]-10-methyl-9-oxo-8,16,18-triazatricyclo[13.2.1.0^2,7]octadeca-1(17),2,4,6,15(18)-pentaen-5-yl]carbamate, TFA salt] | 0.05 | 0.56
14 | COC(=O)Nc1ccc2c(c1)NC(=O)[C@H](C)C(=O)CC[C@H](N1CCC(c3c(F)ccc(Cl)c3F)=CC1=O)c1cc-2ccn1 [Example 136, Methyl N-[(10R,14S)-14-[4-(3-chloro-2,6-difluorophenyl)-6-oxo-1,2,3,6-tetrahydropyridin-1-yl]-10-methyl-9,11-dioxo-8,16-diazatricyclo[13.3.1.0^2,7]nonadeca-1(19),2(7),3,5,15,17-hexaen-5-yl]carbamate] | 45.3 | 118
15 | C[C@@H]1CCC[C@H](N2CCC(c3c(F)ccc(Cl)c3F)=CC2=O)c2cc(ccn2)-c2cc(Br)ccc2NC1=O [Example 137, (10R,14S)-4-bromo-14-[4-(3-chloro-2,6-difluorophenyl)-6-oxo-1,2,3,6-tetrahydropyridin-1-yl]-10-methyl-8,16-diazatricyclo[13.3.1.0^2,7]nonadeca-1(19),2(7),3,5,15,17-hexaen-9-one] | 69.6 | 91.3
16 | C[C@@H]1CCC[C@H](N2CCC(c3c(F)ccc(Cl)c3F)=CC2=O)c2cc(ccn2)-c2cc(C#N)ccc2NC1=O [Example 138, (10R,14S)-14-[4-(3-chloro-2,6-difluorophenyl)-6-oxo-1,2,3,6-tetrahydropyridin-1-yl]-10-methyl-9-oxo-8,16-diazatricyclo[13.3.1.0^2,7]nonadeca-1(19),2(7),3,5,15,17-hexaene-4-carbonitrile] | 36.2 | 31.7
17 | C[C@@H]1CCC[C@H](N2CCC(c3c(F)ccc(C#N)c3F)=CC2=O)c2cc(ccn2)-c2cc(C#N)ccc2NC1=O [Example 139, (10R,14S)-14-[4-(3-cyano-2,6-difluorophenyl)-6-oxo-1,2,3,6-tetrahydropyridin-1-yl]-10-methyl-9-oxo-8,16-diazatricyclo[13.3.1.0^2,7]nonadeca-1(19),2(7),3,5,15,17-hexaene-4-carbonitrile] | > 408 | 6050
18 | Cc1ccc2c(c1)-c1ccnc(c1)[C@@H](N1CCC(c3c(F)ccc(Cl)c3F)=CC1=O)CCC[C@@H](C)C(=O)N2 [Example 141, (10R,14S)-14-[4-(3-chloro-2,6-difluorophenyl)-6-oxo-1,2,3,6-tetrahydropyridin-1-yl]-4,10-dimethyl-8,16-diazatricyclo[13.3.1.0^2,7]nonadeca-1(19),2(7),3,5,15,17-hexaen-9-one] | 98.9 | 123
19 | C[C@@H]1CCC[C@H](N2CCC(c3c(F)ccc(Cl)c3F)=CC2=O)c2cc(ccn2)-c2cc(F)c(N)cc2NC1=O [Example 143, (10R,14S)-5-amino-14-[4-(3-chloro-2,6-difluorophenyl)-6-oxo-1,2,3,6-tetrahydropyridin-1-yl]-4-fluoro-10-methyl-8,16-diazatricyclo[13.3.1.0^2,7]nonadeca-1(19),2(7),3,5,15,17-hexaen-9-one] | 1.31 | 3.38
